Experimental data reported in patent EP4640207A1, “AQUEOUS COMPOSITION AND EXTERNAL PREPARATION FOR SKIN” (Resonac Corporation, priority 2022, dated 2024).
Read-outs that look alike come from different tables or passages of the source.

Columns and labels:
[1] = system: skin model (model "EP1-200"); experiment: TJ-forming ability evaluation test: transepidermal water loss (TEWL) of skin model; assay type: cell-based; details: cultured 24 hours
Method: A skin model (model "EP1-200", manufactured by KURABO INDUSTRIES LTD.) was pre-cultured for 1 hour under the conditions of 37°C and 5% CO2. Subsequently, δ-TPG dissolved in a 0.5% by mass HD aqueous solution at a concentration of 0.2% by mass was added to the surface of the skin model, and the skin model was further cultured for 24 hours. Subsequently, δ-TPG was removed, the sample was washed three times with a phosphate buffer solution, and the transepidermal water loss (TEWL) was measured. A cyclone water vaporizer (manufactured by ASCH JAPAN Co.,Ltd.) was used for measuring the TEWL.
TEWL was measured by performing the same operation as described above using TPA instead of δ-TPG.
For comparison, a 0.5% by mass HD aqueous solution not containing δ-TPG instead of δ-TPG dissolved in a 0.5% by mass HD aqueous solution was used, and the same operation as described above was performed to measure the TEWL.
The same operation as described above was performed using δ-TP dissolved in 1% by mass of HD at a concentration of 0.2% by mass, instead of δ-TPG dissolved in 0.5% by mass of HD, and the TEWL was measured.
It was confirmed that TEWL was suppressed in the group in which δ-TPG was added. […]

claudin 1 (CLDN1) gene = experiment: Expression of TJ-related gene CLDN1 in UVB-irradiated NHEK cells, quantitative real-time PCR; assay type: cell-based, human; details: for fold induction at 10 µM: Homo sapiens, light or radiation study, read-out: Expression level of gene (relative value) CLDN1 gene
Method: (§1) • (Confirmation of activity of aqueous composition with δ-TPG and HD: effect of promoting expression of TJ-related gene) • Normal human epidermal keratinocytes (NHEK, manufactured by KURABO INDUSTRIES LTD.) were subjected to the same operation as in Experimental Example 2 to obtain evaluation cells.
(§2) Total RNA was extracted from the evaluation cells thus obtained, and cDNA was synthesized. Subsequently, quantitative real-time PCR was carried out using the above-described cDNA as a template, and the expression levels of the claudin 1 (CLDN1) gene and occludin (OCL) gene in the NHEK cells were quantified. In addition, the expression level of GAPDH was quantified as an internal standard gene. The expression levels of the CLDN1 gene and OCL gene were standardized with reference to the expression level of the GAPDH gene in the NHEK cells. As a primer for amplifying the GAPDH gene, a primer GAPDH (ID: HA067812) manufactured by Takara Bio Inc. was used. As a primer for amplifying the CLDN1 gene, a primer CLDN1 (ID: HA103348) manufactured by Takara Bio Inc. was used. As a primer for amplifying the OCL gene, a primer OCL (ID: HA036753) manufactured by Takara Bio Inc. was used.
(§3) The same operation as described above was performed using, instead of δ-TPG, α-TPG, TPA, δ-TP, or α-TP to obtain evaluation cells. The expression levels of the CLDN1 gene and OCL gene were measured for these evaluation cells by the same operation as described above.
(§4) The expression level of each gene was determined as a relative value when the expression level of each gene in reference cells was set to 1. The reference cells were prepared by the same operation as the reference cells in Experimental Example 2.
(§5) The expression levels of the CLDN1 gene and OCL gene in comparative cells were determined by the same method as described above. The comparative cells were prepared by the same operation as the comparative cells in Experimental Example 2.

TRPV4 gene = experiment: cells; assay type: cell-based, human; details: for fold induction at 10 µM: Homo sapiens, NHEK, light or radiation study, read-out: Expression level of TRPV4 gene (relative value); for Expression level of TRPV4 gene (relative value): nhek cells, 10 µM
Method: • (Confirmation of activity of aqueous composition containing δ-TPG and HD: expression of TRPV4 gene) • Normal human epidermal keratinocytes (NHEK, manufactured by KURABO INDUSTRIES LTD.) were seeded in a plastic petri dish at a seeding density of 10,000 cells/cm^2, and cultured for 24 hours in a normal human epidermal keratinocyte serum-free culture medium (manufactured by KURABO INDUSTRIES LTD.).
8.94 g of water, 1.0 g of HD, and 0.06 g of δ-TPG were mixed and stirred to obtain an aqueous composition. The above-described aqueous composition was added to a culture solution in which the above-described NHEK cells had been cultured for 24 hours, such that the final concentration of δ-TPG was 10 µM.
After adding the δ-TPG, the above-described culture solution was further cultured for 48 hours. Thereafter, the culture solution was irradiated with UVB at 60 mJ/cm^2 using a UVB irradiation device of UVP, LLC. Thereafter, a fresh normal human epidermal keratinocyte growth medium was added to the above-described culture solution, and the culture was further carried out for 24 hours. In this manner, evaluation cells were obtained.
Total RNA was extracted from the evaluation cells obtained above, and cDNA was synthesized. Subsequently, quantitative real-time PCR was carried out using the above-described cDNA as a template, and the expression level of the TRPV4 gene in the NHEK cells was quantified. The expression level of glyceraldehyde 3-phosphate dehydrogenase (GAPDH) was quantified as an internal standard gene. […] The expression level of the TRPV4 gene was standardized with reference to the expression level of the GAPDH gene in the NHEK cells. As a primer for amplifying the GAPDH gene, a primer GAPDH (ID: HA067812) manufactured by Takara Bio Inc. was used. As a primer for amplifying the TRPV4 gene, a primer TRPV4 (ID: HA186338) manufactured by Takara Bio Inc. was used.
The same operation as described above was carried out using, instead of δ-TPG, D-α-tocopheryl glucoside (hereinafter, may be abbreviated as "α-TPG"), tocopherol acetate (FUJIFILM Wako Pure Chemical Corporation; hereinafter, may be abbreviated as "TPA"), δ-tocopherol (Sigma-Aldrich Co., LLC; hereinafter, may be abbreviated as "δ-TP"), or α-tocopherol (SEIKO-EPSON CORPORATION; hereinafter, may be abbreviated as "α-TP"), thereby obtaining evaluation cells. The expression level of the TRPV4 gene was measured for these evaluation cells by the same operation as described above.
The expression level of the TRPV4 gene was determined as a relative value when the expression level of the TRPV4 gene in reference cells was set to 1. The reference cells were prepared by culturing the NHEK cells without adding a test compound to the cell culture solution and without irradiating the cells with UVB. HD was added to the cell culture solution of the reference cells so that the HD concentration in the cell culture solution was the same as that in the culture solution when δ-TPG was added and cultured. The culture conditions for the NHEK cells were the same as those when δ-TPG was added, except that δ-TPG was not added and UVB irradiation was not carried out.
Comparative cells were prepared by culturing the NHEK cells by not adding the test compound to the cell culture solution and irradiating the cells with UVB. […] The expression level of the TRPV4 gene in the comparative cells was determined by the same method as described above.

occludin (OCL) gene = experiment: Expression of TJ-related gene OCL in UVB-irradiated NHEK cells, quantitative real-time PCR; assay type: cell-based, human; details: for fold induction at 10 µM: Homo sapiens, light or radiation study, read-out: Expression level of gene (relative value) OCL gene
Method: as §1, §2, §3, §4, §5

[2] = Confirmation of solubility of tocopheryl glucoside (visual observation of vials); details: aqueous composition not containing HD
Method: The solubility of the D-δ-tocopheryl glucoside (hereinafter, may be abbreviated as "δ-TPG") was examined.
9.9 g of each of the mixtures was placed in individual vials, 0.01 g of solid δ-TPG was added to each vial, and the mixture was stirred at room temperature. After stirring for 1 hour, the state of each vial was observed.

[3] = 0.2% by mass in 0.5% by mass HD aqueous solution on skin model surface
[4] = NHEK cells, final concentration 10 µM, UVB 60 mJ/cm^2 performed, relative to reference cells (HD, no UVB) = 1, standardized to GAPDH

Row | Molecule | TEWL [1, 3] | fold induction at 10 µM (claudin 1 (CLDN1) gene; [4]) | fold induction at 10 µM (TRPV4 gene) | fold induction at 10 µM (occludin (OCL) gene; [4]) | Expression level of TRPV4 gene (relative value) (TRPV4 gene) | other results
1 | CC(=O)Oc1c(C)c(C)c2c(c1C)CCC(C)(CCCC(C)CCCC(C)CCCC(C)C)O2 (stereo not shown) [TPA/HD, tocopherol acetate] | 12.4 ± 0.8 g/(h·m^2) | 0.77 | 0.29 | 1.12 |  | 
2 | Cc1c(C)c2c(c(C)c1O)CCC(C)(CCCC(C)CCCC(C)CCCC(C)C)O2 (stereo not drawn) [α-TP/HD, α-tocopherol] |  |  | 0.43 |  |  | fold induction at 10 µM (claudin 1 (CLDN1) gene; NHEK): 1; fold induction at 10 µM (occludin (OCL) gene; NHEK): 2.48
3 | Cc1cc(OC2OC(CO)C(O)C(O)C2O)cc2c1OC(C)(CCCC(C)CCCC(C)CCCC(C)C)CC2 [δ-TPG, D-δ-tocopheryl glucoside] | 7.9 ± 1.7 g/(h·m^2) | 1.28 | 0.83 | 3.45 |  | 
4 | D-α-tocopheryl glucoside [α-TPG/HD] |  |  |  |  | 0.77 | Expression level of gene (relative value) CLDN1 gene (claudin 1 (CLDN1) gene; [4]): 1.24; Expression level of gene (relative value) OCL gene (occludin (OCL) gene; [4]): 3.24
5 | tocopheryl glucoside |  |  |  |  |  | solubility of tocopheryl glucoside [2]: not sufficiently dissolved
6 | δ-tocopherol [δ-TP/HD] |  |  |  |  | 0.54 | TEWL ([1]; 0.2% by mass in 1% by mass of HD on skin model surface): 8.2 ± 1.2 g/(h·m^2); Expression level of gene (relative value) CLDN1 gene (claudin 1 (CLDN1) gene; nhek cells, 10 µM): 1.00; Expression level of gene (relative value) OCL gene (occludin (OCL) gene; nhek cells, 10 µM): 1.91
